Here are results for 2 molecules from ChEMBL document CHEMBL4715863, “Chemistry and Biology of Natural Azoxy Compounds” (J Nat Prod, 2020).

Molecules are shown by their SMILES. Converted amounts (≈) assume the structure as drawn.

The test system of one assay is Escherichia coli. Nature of the assay: Antibacterial activity against Escherichia coli BE1121 by paper disc-agar diffusion method. The assay is classed as functional.
In a further assay the test system is KB. The experiment in a line: Cytotoxicity against human KB cells. Format: functional, cell-based.

`C=C(/N=[N+](\[O-])CC(C)C)C(=O)O`: in the assay with Escherichia coli, the MIC was found to be 0.078 µg/mL (≈ 0.453 µM).
Regarding `[O-]/[N+](CCCCCCCCCC/C=C\CCc1cccnc1)=N\CCCCCCCCCC/C=C\CCc1cccnc1`, half-maximal inhibition in the assay with KB (IC50) required 1700 nM.
